Key:
KB = experiment: In vitro reversal of multidrug resistance (MDR) in human carcinoma cell line; format: functional
[1] = biological target: Peptidyl-prolyl cis-trans isomerase FKBP1A (Homo sapiens) (UniProt P62942); experiment: In vitro inhibition of non-cytotoxic immunophilin FK506 binding protein activity
Peptidyl-prolyl cis-trans isomerase FKBP1A (Homo sapiens), sequence (P62942 whole entry): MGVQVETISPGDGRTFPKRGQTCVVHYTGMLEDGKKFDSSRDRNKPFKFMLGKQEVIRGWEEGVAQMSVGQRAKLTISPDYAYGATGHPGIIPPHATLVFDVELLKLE

Compound | Activity (KB) [µM] | Activity [1] [µM]
C[C@H](/C=C/c1ccc(C(=O)C(=O)N2CCCC2C(=O)N[C@@H](CC2CCCCC2)C(=O)OC(C)(C)C)s1)CO (some centres undefined) | 13 | > 100
COc1cccc(C(=O)CN2CCCCC2C(=O)N[C@@H](Cc2ccccc2)C(=O)N[C@H](/C=C/I)C(C)C)c1 (some centres undefined) | 30 | 2
C[C@H](/C=C/c1ccc(C(=O)C(=O)N2CCCC2C(=O)OC(C)(C)C)s1)CO (some centres undefined) | >50 | > 100
COC(=O)C(=O)N1CCCC1C(=O)N[C@@H](Cc1ccccc1)C(=O)OC(C)(C)C (some centres undefined) | >50 | > 50
CCC(C)C[C@H](NC(=O)C1CCCCN1CC(=O)c1cccc(OC)c1)C(=O)OC(C)(C)C (some centres undefined) | >50 | 8
COc1cccc(C(=O)CN2CCCCC2C(=O)N[C@@H](Cc2ccccc2)C(=O)N[C@H](/C=C/COC(C)=O)C(C)C)c1 (some centres undefined) | >50 | 2
C#C[C@@H](NC(=O)[C@H](Cc1ccccc1)NC(=O)C1CCCCN1CC(=O)c1cccc(OC)c1)C(C)C (some centres undefined) | 11 | 5
C=CCC(CC(C)C[C@H](C)C[C@H](OC)C1OC(O)(C(=O)C(=O)N2CCCCC2)[C@H](C)C[C@@H]1OC)C(=O)C[C@H](O)[C@@H](C)[C@H](OC(C)=O)C(C)CC1CC[C@@H](O)C(OC)C1 (some centres undefined) | 5 | 0.001
COC(=O)[C@H](Cc1ccccc1)NC(=O)[C@@H](NC(=O)[C@H](Cc1ccccc1)NC(=O)C1CCCCN1CC(=O)c1cccc(OC)c1)C(C)C (some centres undefined) | >50 | 1
C[C@H](/C=C/c1ccc(C(=O)C(=O)N2CCCC2C(=O)N[C@@H](Cc2ccccc2)C(=O)OC(C)(C)C)s1)CO (some centres undefined) | >50 | 100
COc1cccc(C(=O)CN2CCCCC2C(=O)N[C@@H](Cc2ccccc2)C(=O)N[C@@H](CC(C)C)C(=O)OC(C)(C)C)c1 (some centres undefined) | 7 | 6
COc1cccc(C(=O)CN2CCCCC2C(=O)N[C@@H](Cc2ccccc2)C(=O)N[C@H](/C=C/COC(=O)C(F)(F)F)C(C)C)c1 (some centres undefined) | 49 | 1
COC(=O)[C@H](Cc1ccccc1)NC(=O)[C@@H](NC(=O)[C@H](Cc1ccccc1)NC(=O)C1CCCCN1CC(=O)c1ccc2ccccc2c1)C(C)C (some centres undefined) | >50 | 0.3
C=CCOC/C=C/[C@@H](NC(=O)[C@H](Cc1ccccc1)NC(=O)C1CCCCN1CC(=O)c1cccc(OC)c1)C(C)C (some centres undefined) | 6 | 3
COc1cccc(C(=O)CN2CCCCC2C(=O)N[C@@H](Cc2ccccc2)C(=O)OC(C)(C)C)c1 (some centres undefined) | >50 | 3
CC(C)[C@H](NC(=O)[C@H](Cc1ccccc1)NC(=O)C1CCCCN1CC(=O)c1ccc2ccccc2c1)C(=O)OC(C)(C)C (some centres undefined) | 5 | 1
COc1cccc(C(=O)CN2CCCCC2C(=O)N[C@@H](Cc2ccccc2)C(=O)N[C@H](C(=O)OC(C)(C)C)C(C)C)c1 (some centres undefined) | 6 | 3

— ChEMBL document CHEMBL1127962, “Investigation of the effects of synthetic, non-cytotoxic immunophilin inhibitors on MDR” (1994)
